Assay results taken from patent US20070129344A1, “Bicyclic 6-alkylidene-penem beta-lactamase inhibitors and beta-lactam antibiotic combination: a broad spectrum antibiotic” (priority 2005, published 2007).
Values after ≈ are worked out from the molar mass of the structure shown. Counter-ions that a name gives are not always drawn. Like-named read-outs stand apart in the source and are kept apart here.

Key:
[1] = tested on: S. typhimurium GC 4198 SHV-1 CTX-M-5; experiment: MIC microbroth dilution; β-lactamase class A, A (ESBL); format: cell-based
Procedure: (§1) The in vitro activities of the antibiotics were determined by the microbroth dilution method as recommended by the National Committee for Clinical Laboratory Standards (NCCLS). (NCCLS. 2000. Methods for Dilution Antimicrobial Susceptibility Tests for Bacteria That Grow Aerobically; Approved Standards: M7-A5, vol. 19. National Committee for Clinical Laboratory Standards, Villanova, Pa.). Mueller-Hinton II broth (MHBII)(BBL Cockeysville, Md.), was used for the testing procedure. […]. The plates were incubated for 18-22 hours at 35° C. in ambient air.

E. coli GC 2906 (Imi-1) = experiment: MIC microbroth dilution; β-lactamase class A (Cb'ase); format: cell-based
Procedure: as §1

E. coli GC 2805 (CcrA) = experiment: MIC microbroth dilution; β-lactamase class B; format: cell-based
Procedure: as §1

[2] = tested on: P. aeruginosa PT 9025 PTZ-R; experiment: MIC microbroth dilution; format: cell-based
Procedure: as §1

[3] = tested on: A. baumannii GC 7692 TEM-1, AmpC; experiment: MIC microbroth dilution; β-lactamase class A, C; format: cell-based
Procedure: as §1

[4] = tested on: E. coli GC 2295 TEM-1 + AmpC; experiment: MIC microbroth dilution; β-lactamase class A, C; format: cell-based
Procedure: as §1

[5] = target: class A β-lactamase TEM-1 (Escherichia coli, UniProt P62593); experiment: β-Lactamase inhibition IC50 (nitrocefin, spectrophotometric); format: biochemical, E. coli; settings: enzyme 4.3 nM, 10 min preincubation at 25° C.
Procedure: (§2) β-Lactamase inhibitory activity of the penem inhibitors was determined spectrophotometrically as described by Bush et al., [Bush, K., Macalintal, C., Rasmussen, B. A., Lee, V. and Yang, Y. Antimicrobial Agents and Chemotherapy 1993, 37, 851]. Homogeneously purified class A β-lactamases TEM-1 from E. coli and Imi-1 from Enterobacter cloacae, class B enzyme CcrA from Bacteroides fragilis and class C enzyme AmpC from Enterobacter cloacae were employed in the assay. The enzyme concentrations for TEM-1, Imi-1, CcrA and AmpC were 4.3, 7.1, 1.2 and 2.1 nM, respectively. A wide range of inhibitor concentrations were prepared in 50 mM PO4, pH 7.0 to include the possible IC50 values. The substrate used to initiate the enzyme reaction was nitrocefin at 50 μg/ml in the same buffer as the inhibitor. Initially the enzyme and inhibitor (20 μl each) were preincubated for 10 minutes at 25° C. prior to the addition of 160 μl volume of nitrocefin. Initial rates of hydrolysis were monitored for 5 minutes at 495 nm using a Molecular Devices Spectra Max 250 with kinetic protocol of SoftMax Program. Readings from the Spectra Max 250 were exported and transferred to Microsoft Excel. The percent of inhibition of each inhibitor concentration was calculated based on the control enzyme activity. The inhibitor concentration that caused a 50% reduction in the enzymatic activity (IC50) was determined graphically.

[6] = target: class A β-lactamase Imi-1 (Enterobacter cloacae, UniProt Q46991); experiment: as above; format: biochemical
Procedure: as §2

class B enzyme CcrA = class B enzyme CcrA (Bacteroides fragilis, UniProt P25910); experiment: as above; format: biochemical; settings: enzyme 1.2 nM, 10 min preincubation at 25° C., read-out: IC50 Class B Ccr
Procedure: as §2

class C enzyme AmpC = class C enzyme AmpC (Enterobacter cloacae, UniProt P05364); experiment: as above; format: biochemical
Procedure: as §2

[7] = tested on: E. coli LSU 80-8 GC 6265 TEM-1; experiment: MIC microbroth dilution; β-lactamase class A; format: cell-based; settings: E. coli GC 6265; Cefepime + 4 ug/ml Compound 1
Procedure: as §1

[8] = tested on: E. coli GC 2021 (TEM-10 + pl 6.3); experiment: MIC microbroth dilution; β-lactamase class A (ESBL); format: cell-based; settings: Cefepime + 4 ug/ml Compound 1
Procedure: as §1

K. pn GC 1827 (TEM-3) = experiment: as above; format: cell-based, K. pneumoniae; settings: Cefepime + 4 ug/ml Compound 1
Procedure: as §1

E. coli GC 2905 (P99) = experiment: MIC microbroth dilution; β-lactamase class C; format: cell-based; settings: Cefepime + 4 ug/ml Compound 1
In short: (§3)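 Following NCCLS standard M7-A5, antibiotics were tested by microbroth dilution in MHBII; plates sat 18-22 hours at 35° C. under ambient atmosphere.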

[9] = tested on: P. aeruginosa GC 1764 AmpC-constitutive; experiment: MIC microbroth dilution; β-lactamase class C; format: cell-based; settings: Cefepime + 4 ug/ml Compound 1
In short: as §3

[10] = tested on: S. marcescens GC 4150 Stably derepressed AmpC; experiment: MIC microbroth dilution; β-lactamase class C; format: cell-based; settings: Cefepime + 4 ug/ml Compound 1
In short: as §3

[11] = tested on: S. marcescens PT 488 Stably derepressed AmpC; experiment: MIC microbroth dilution; β-lactamase class C; format: cell-based; settings: Cefepime + 4 ug/ml Compound 1
In short: as §3

[12] = tested on: S. marcescens PT 6003 Stably derepressed AmpC; experiment: MIC microbroth dilution; β-lactamase class C; format: cell-based; settings: Cefepime + 4 ug/ml Compound 1
In short: as §3

[13] = tested on: E. cloacae GC 1713 AmpC-constitutive; format: cell-based; settings: Cefepime + 4 ug/ml Compound 1
Procedure: (§4) The in vitro activities of the antibiotics were determined by the microbroth dilution method as recommended by the National Committee for Clinical Laboratory Standards (NCCLS). (NCCLS. 2000. Methods for Dilution Antimicrobial Susceptibility Tests for Bacteria That Grow Aerobically; Approved Standards: M7-A5, vol. 19. National Committee for Clinical Laboratory Standards, Villanova, Pa.). Mueller-Hinton II broth (MHBII)(BBL Cockeysville, Md.), was used for the testing procedure. […] The plates were incubated for 18-22 hours at 35° C. in ambient air.

[14] = tested on: E. cloacae GC 7055 TEM-1, SHV-12 Amp C inducable; format: cell-based; settings: Cefepime + 4 ug/ml Compound 1
Procedure: as §4

[15] = tested on: E. cloacae PT 197 Stably derepressed AmpC; format: cell-based; settings: Cefepime + 4 ug/ml Compound 1
Procedure: as §4

Chain of class B enzyme CcrA (P25910 19-249): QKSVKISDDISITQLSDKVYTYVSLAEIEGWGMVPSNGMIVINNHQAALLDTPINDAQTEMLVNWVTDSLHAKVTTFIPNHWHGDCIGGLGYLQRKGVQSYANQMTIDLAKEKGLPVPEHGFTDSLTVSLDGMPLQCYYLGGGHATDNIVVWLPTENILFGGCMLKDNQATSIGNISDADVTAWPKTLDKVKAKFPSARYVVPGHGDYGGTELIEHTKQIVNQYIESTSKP
Chain of class A β-lactamase Imi-1 (Q46991 entry or part of it): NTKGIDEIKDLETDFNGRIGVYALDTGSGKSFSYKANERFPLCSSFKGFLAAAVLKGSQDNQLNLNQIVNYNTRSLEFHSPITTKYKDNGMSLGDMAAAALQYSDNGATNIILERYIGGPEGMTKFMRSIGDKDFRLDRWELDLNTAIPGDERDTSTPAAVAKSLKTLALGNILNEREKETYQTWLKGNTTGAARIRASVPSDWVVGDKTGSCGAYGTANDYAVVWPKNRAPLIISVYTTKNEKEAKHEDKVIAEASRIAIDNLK
Chain of class C enzyme AmpC (P05364 21-381): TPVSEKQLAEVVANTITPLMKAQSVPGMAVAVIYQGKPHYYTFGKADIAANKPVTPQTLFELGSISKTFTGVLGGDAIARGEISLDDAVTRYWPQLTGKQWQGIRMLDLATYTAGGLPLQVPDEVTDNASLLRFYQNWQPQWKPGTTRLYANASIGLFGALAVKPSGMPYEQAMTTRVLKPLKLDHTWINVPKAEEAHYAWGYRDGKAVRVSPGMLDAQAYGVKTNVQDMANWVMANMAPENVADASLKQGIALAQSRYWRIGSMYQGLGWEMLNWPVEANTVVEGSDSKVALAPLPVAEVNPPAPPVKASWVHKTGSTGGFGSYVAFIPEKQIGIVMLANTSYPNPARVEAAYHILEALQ
Chain of class A β-lactamase TEM-1 (P62593 24-286 limits assumed): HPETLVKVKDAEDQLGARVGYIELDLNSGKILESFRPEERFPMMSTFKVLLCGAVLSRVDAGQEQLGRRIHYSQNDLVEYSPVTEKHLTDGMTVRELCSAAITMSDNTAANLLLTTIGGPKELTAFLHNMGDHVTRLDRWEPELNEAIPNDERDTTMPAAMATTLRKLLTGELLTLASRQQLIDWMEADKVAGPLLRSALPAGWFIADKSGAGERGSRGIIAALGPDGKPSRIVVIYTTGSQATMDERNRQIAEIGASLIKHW

CO/N=C(\C(=O)N[C@@H]1C(=O)N2C(C(=O)[O-])=C(C[N+]3(C)CCCC3)CS[C@H]12)c1csc(N)n1 [Cefepime, reference compound] gave an MIC ([1]; S. typhimurium GC 4198, Cefepime alone, control of Compound 2 test) of over 16 µg/mL, an MIC ([1]; Salmonella enterica, TYPHIMURIUM) of over 16 µg/mL and an MIC (E. coli GC 2906 (Imi-1); Escherichia coli, Cefepime alone, control of Compound 1 test) of 0.5 µg/mL (≈ 1.04 µM). It also gave an MIC (E. coli GC 2805 (CcrA); E. coli GC 2805, Cefepime alone, control of Compound 2 test) of over 16 µg/mL, an MIC (E. coli GC 2805 (CcrA); Escherichia coli) of over 16 µg/mL and an MIC ([2]; P. aeruginosa PT 9025, Cefepime alone, control of Compound 2 test) of over 16 µg/mL. For the same molecule, the MIC ([2]; Pseudomonas aeruginosa, PT9025PTZR) was over 16 µg/mL, the MIC ([3]; A. baumannii GC 7692, Cefepime alone, control of Compound 2 test) was over 16 µg/mL and the MIC ([3]; Acinetobacter baumannii) was over 16 µg/mL. For the same molecule, the MIC ([4]; E. coli GC 2295, Cefepime alone, control of Compound 2 test) was 0.50 µg/mL (≈ 1.04 µM) and the MIC ([4]; Escherichia coli) was 0.5 µg/mL (≈ 1.04 µM).
O=C([O-])C1=CS[C@@H]2/C(=C\c3cn4c(n3)CCC4)C(=O)N12.[Na+] [Compound 1, (5R), (6Z)-6-(6,7-Dihydro-5H-pyrrolo[1,2-a]imidazol-2-ylmethylene)-7-oxo-4-thia-1-aza-bicyclo[3.2.0]hept-2-ene-2-carboxylic Acid, Sodium Salt] showed an IC50 [5] of 0.4 nM, an IC50 ([6]; enzyme 7.1 nM, 10 min preincubation at 25° C., nitrocefin, read-out: IC50 Class A Imi) of 7.8 nM and an IC50 (class B enzyme CcrA) of 66 nM. For the same molecule, the IC50 (class C enzyme AmpC; enzyme 2.1 nM, 10 min preincubation at 25° C., nitrocefin, read-out: IC50 Class C AmpC) was 4.8 nM, the MIC [7] was 0.03 µg/mL and the MIC [8] was 0.12 µg/mL. The MIC (K. pn GC 1827 (TEM-3)) was 0.03 µg/mL, the MIC ([1]; S. typhimurium GC 4198, Cefepime + 4 ug/ml Compound 1) was 0.50 µg/mL and the MIC (E. coli GC 2906 (Imi-1); Cefepime + 4 ug/ml Compound 1) was 0.06 µg/mL. For the same molecule, the MIC (E. coli GC 2805 (CcrA); E. coli GC 2805, Cefepime + 4 ug/ml Compound 1) was over 16 µg/mL, the MIC (E. coli GC 2905 (P99)) was 0.06 µg/mL and the MIC [9] was 0.50 µg/mL. It also gave an MIC [10] of 0.25 µg/mL, an MIC [11] of 0.06 µg/mL and an MIC [12] of 0.25 µg/mL. The MIC [13] was 0.12 µg/mL, the MIC [14] was 0.06 µg/mL and the MIC [15] was 0.50 µg/mL. It also gave an MIC ([2]; P. aeruginosa PT 9025, Cefepime + 4 ug/ml Compound 1) of 16 µg/mL, an MIC ([3]; A. baumannii GC 7692, Cefepime + 4 ug/ml Compound 1) of over 16 µg/mL and an MIC ([4]; E. coli GC 2295, Cefepime + 4 ug/ml Compound 1) of 0.12 µg/mL.
Work on O=C(O)C1=CS[C@@H]2/C(=C\c3cn4c(n3)COCC4)C(=O)N12 [Compound 2, (5R), (6Z)-6-(5,6-Dihydro-8H-imidazo[2.1-c][1,4]oxazin-2-ylmethylene)-7-oxo-4-thia-1-azabicyclo[3.2.0]hept-2-ene-2-carboxylic Acid, Sodium Salt] yielded an IC50 [5] of 0.6 nM, an IC50 [6] of 20 nM and an IC50 (class B enzyme CcrA) of 230 nM. The IC50 (class C enzyme AmpC) was 2.2 nM.
